In patent US9289471B2, “Product and process for liquefaction of mucus or sputum” (National Jewish Health, priority 2002, dated 2016):

Assays:
Design in all cases: species or system human
[1] = Magnetic microrheometry: viscoelasticity (log G*) of CF sputum; conditions: for decrease in log G* (before minus after exposure): 20 min (FIG. 4A); for log G* after treatment: 37° C., 20 minutes; for log G* after treatment / log G* before treatment: mean ± standard error; for decline in viscoelasticity (log G*): Trx (30 μM), TR (0.1 μM); for log G* before treatment: baseline, 4 samples
Procedure: Viscoelastic change in response to treatment was measured by means of a magnetic microrheometer as developed by King (King M., Magnetic microrheometer. In: Methods in Bronchial Mucology, edited by Braga P C, and Allegra L. New York: Raven Press, 1988, p. 73-83). An 80-120 μm steel sphere was placed in a 10 mg sputum sample. An electromagnet was used to oscillate this sphere, whose image was projected onto a pair of photocells via a microscope. […] G* was the mechanical impedance or vector sum of viscosity and elasticity. For Trx and NADPH dose response experiments, log G* at 10 rad/s was measured before any treatment (baseline), and then after 20 minute incubation with no treatment, diluent (H2O), or Trx with reducing system. All treatments were administered to the sample in a volume of H2O equal to 10% of total sample volume. One measurement was performed per aliquot of sample.
Magnetic microrheometry was performed to determine the effect of Trx and its reducing system on sputum viscosity. Measurements were performed on sputum samples before and after incubation with the Trx reducing system (Table 1) to determine the change in log G* (viscoelasticity).
In the experiment shown in FIG. […] Each column represents the mean±standard error for 4 samples (♦Statistically significant from H2O diluent value). […]

[2] = Glycoprotein content of sputum aqueous and gel phases by PAS staining; conditions: 10 or 30 μM Trx with reducing system, 20 min (FIG. 5)
Procedure: Extraction of soluble glycoproteins from sputum was performed according to methodology outlined by Davies et al. (Davies and Carlstedt, Methods Mol Biol 125:3-13, 2000). 275 μl of CF sputum was treated for 20 minutes at 37° C. with 25 μl of H2O alone or H2O containing Trx (10 or 30 μM)+NADPH (2 mM) and TR (0.1 μM). After treatment, 100 μl of H2O containing 1 mM disopropylflurophosphate and 10 μg ml aprotinin, was added to each sample, followed by 15 minute centrifugation at 22,000 g at 4° C. The resulting supernatant (aqueous phase) of each sample was transferred to a new microcentrifuge tube and stored at −20° C. […]
The glycoprotein content of aqueous and gel phase samples were evaluated by staining with periodic acid Schiff reagent (PAS) according to methodology outlined by Thornton et al. (Thornton et al., Methods Mol Biol 125:77-85, 2000). […]
Disulfide bonds on mucin glycoprotein polymers are potential targets for reduction by Trx. […] After treatment, the resulting soluble and insoluble phases of each sample were separated and analyzed for glycoprotein content by periodic acid/Schiff reagent (PAS) staining Specifically, fractions were loaded and electrophoresed in a 1% agarose (w/v) gel, transferred to PVDF membrane, and stained with periodic acid/Schiff reagent as described in materials and methods. […]

DNA in CF sputum = assay: Total DNA content of sputum gel and liquid phases by Hoechst assay; conditions: Trx (30 μM) + reducing system, 20 min, mean ± S.D., n=5 (FIG. 6)
Procedure: 275 μl of CF sputum was incubated with no treatment, 25 μl of H2O, or 25 μl of H2O containing Trx (30 μM)+TR (0.1 μM) and NADPH (2 mM). After 20 minute incubation at 37° C., 100 μl of H2O was added to each sample, followed by centrifugation (22,000×g) for 10 minutes. Resulting gel and liquid phases were separated and incubated with an equal volume of digestion solution consisting of 100 mM Tris Cl, 5 mM EDTA, 200 mM NaCl, 0.5% Tween 20, and 1 mg/ml proteinase K for 4 hours at 50° C. DNA was purified from liquid and gel phases by phenol/chloroform extraction and resuspended in 100 μl of TE buffer, pH 8.0. DNA concentrations were determined by Hoechst assay (Labarca and Paigen, Anal Biochem 102:344-352, 1980) using an F-2000 fluorometer (Hitachi, Schaumburg, Ill.) with an excitation wavelength of […] and an emission wavelength of 555 nm. Salmon testis DNA, dissolved in TE buffer, was used to establish the standard curve.
The presence of high amounts of extracellular DNA in CF airway secretions contributes to the excessive viscoelasticity of CF sputum. To evaluate what effect Trx has on the solubility of DNA in sputum, sputum samples (275 μl) were incubated with either no additions, diluent (H2O), or Trx (30 μM)+reducing system for 20 minutes, and then separated into gel (insoluble) and liquid (soluble) phases. […]

Q: Which “decrease in log G* (before minus after exposure)” value ([1]; 3 μM Trx + 0.1 μM TR + 2 mM NADPH) does the source give for “Trx: Lyophilized recombinant E. coli Trx from Promega; protein disulfide reductase, used with its reducing system (TR + NADPH)” here?
A: 0.26 log units

Q: What about the “log G* after treatment” value ([1]; 3 μM Trx + 0.1 μM TR and 2 μM NADPH) of the same substance?
A: 3.11 ± 0.04

Q: What about the “decrease in log G* (before minus after exposure)” value ([1]; 10 μM Trx + 0.1 μM TR + 2 mM NADPH) of the same substance?
A: 0.39 log units

Q: And the “log G* after treatment” value ([1]; 10 μM Trx + 0.1 μM TR and 2 μM NADPH)?
A: 2.94 ± 0.05

Q: What about the “decrease in log G* (before minus after exposure)” value ([1]; 30 μM Trx + 0.1 μM TR + 2 mM NADPH) of the same substance?
A: 0.65 log units

Q: What about the “log G* after treatment” value ([1]; 30 μM Trx + 0.1 μM TR and 2 μM NADPH) of the same substance?
A: 2.63 ± 0.04

Q: And the sputum viscoelasticity ([1]; 20 minute treatment with 3, 10, or 30 μM Trx)?
A: significantly diminished

Q: What about the “decline in viscoelasticity (log G*)” value ([1]; 0.2 mM NADPH (FIG. 4B)) of the same substance?
A: 0.16 log units

Q: And the “decline in viscoelasticity (log G*)” value ([1]; 0.6 mM NADPH (FIG. 4B))?
A: 0.26 log units

Q: And the “decline in viscoelasticity (log G*)” value ([1]; 2 mM NADPH (FIG. 4B))?
A: 0.39 log units

Q: And the “log G* before treatment” value ([1]; aliquots for 3 μM Trx)?
A: 3.37 ± 0.06

Q: What about the “log G* before treatment” value ([1]; aliquots for 10 μM Trx) of the same substance?
A: 3.33 ± 0.06

Q: And the “log G* before treatment” value ([1]; aliquots for 30 μM Trx)?
A: 3.28 ± 0.04

Q: And the “amount of PAS-reactive glycoproteins in soluble and gel phases versus diluent” value [2]?
A: greater amounts of PAS-reactive glycoproteins

Q: And the “electrophoretic mobility of glycoforms versus diluent-treated samples” value [2]?
A: greater electrophoretic mobility

Q: And the “DNA content of gel (insoluble) phase” value (DNA in CF sputum)?
A: 0.55 ± 0.31 mg

Q: And the “DNA content of liquid (soluble) phase” value (DNA in CF sputum)?
A: 0.57 ± 0.37 mg
